Results: the CheMixHub ionic liquid set

Experiment: xn = mol fraction of the nth substance listed

CCCn1cc[n+](C)c1.O=S(=O)([N-]S(=O)(=O)C(F)(F)F)C(F)(F)F + O
100 kPa, x2 = 0.272
Settings | viscosity [mPa·s]
308.15 K | 18.83
318.15 K | 13.95
323.15 K | 12.19
343.15 K | 7.64
353.15 K | 6.25

CCCCCCCCCCCC[N+](C)(C)CC.[Br-] + O
viscosity [mPa·s], 101 kPa
Settings | x1 = 3.604e-05 | x1 = 9.009e-05 | x1 = 0.0001441 | x1 = 0.0001802 | x1 = 0.0002702 | x1 = 0.0003603 | x1 = 0.0004503 | x1 = 0.0005403
298.15 K | 0.895 | 0.903 | 0.913 | 0.916 | 0.929 | 0.938 | 0.947 | 0.956
303.15 K | 0.796 | 0.807 | 0.816 | 0.822 | 0.831 | 0.839 | 0.847 | 0.854
308.15 K | 0.714 | 0.726 | 0.735 | 0.74 | 0.75 | 0.758 | 0.765 | 0.773
313.15 K | 0.647 | 0.658 | 0.666 | 0.673 | 0.682 | 0.688 | 0.693 | 0.699
318.15 K | 0.587 | 0.595 | 0.605 | 0.61 | 0.619 | 0.623 | 0.628 | 0.632

CCC1COC(=O)O1 (configuration not stated) + O=S(=O)([N-]S(=O)(=O)C(F)(F)F)C(F)(F)F.[Li+]
298.1 K, 100 kPa, x2 = 0.333
Settings | electrical conductivity [S/m] | viscosity [mPa·s]
– | 0.02 | 323

NC(CO)CO + CC[n+]1ccn(C)c1.[Cl-]
101 kPa, x2 = 0.667
Settings | viscosity [mPa·s]
298.15 K | 297
303.15 K | 214
313.15 K | 115.9
323.15 K | 64.5
333.15 K | 41.4

CCC[N+]1(C)CCCC1.O=S(=O)([N-]S(=O)(=O)C(F)(F)F)C(F)(F)F + CC[n+]1ccn(C)c1.O=S(=O)([N-]S(=O)(=O)C(F)(F)F)C(F)(F)F
101 kPa
Settings | electrical conductivity, 293.15 K [S/m] | electrical conductivity, 333.15 K [S/m] | electrical conductivity, 353.15 K [S/m] | viscosity, 293.15 K [mPa·s] | viscosity, 333.15 K [mPa·s] | viscosity, 353.15 K [mPa·s]
x2 = 0 | – | 1.18 | 1.76 | – | 18.8 | 11.6
x2 = 0.5 | 0.528 | – | – | 53.4 | – | –

CC[n+]1ccn(C)c1.N#C[N-]C#N + CCO
viscosity [mPa·s]
Settings | 298.15 K | 303.15 K | 308.15 K | 313.15 K | 318.15 K | 323.15 K | 328.15 K | 343.15 K
100 kPa, x1 = 0.0997 | 1.85 | 1.71 | 1.56 | 1.44 | 1.33 | 1.23 | – | –
100 kPa, x1 = 0.196 | 2.7 | 2.47 | 2.25 | 2.07 | 1.9 | 1.75 | – | –
100 kPa, x1 = 0.3001 | 3.66 | 3.31 | 3.02 | 2.76 | 2.53 | 2.33 | – | –
100 kPa, x1 = 0.3945 | 4.62 | 4.16 | 3.78 | 3.45 | 3.16 | 2.9 | – | –
100 kPa, x1 = 0.4997 | 5.82 | 5.23 | 4.72 | 4.29 | 3.92 | 3.59 | – | –
100 kPa, x1 = 0.5993 | 7.11 | 6.35 | 5.71 | 5.16 | 4.7 | 4.29 | – | –
100 kPa, x1 = 0.7013 | 8.69 | 7.71 | 6.89 | 6.19 | 5.61 | 5.1 | – | –
100 kPa, x1 = 0.8014 | 10.45 | 9.21 | 8.17 | 7.3 | 6.57 | 5.95 | – | –
100 kPa, x1 = 0.8929 | 11.97 | 10.48 | 9.25 | 8.23 | 7.37 | 6.65 | – | –
100 kPa, x1 = 1 | 13.09 | 11.39 | 10 | 8.86 | 7.92 | 7.13 | – | –
101 kPa, x2 = 0 | – | – | – | 10.07 | – | – | 7.26 | –
101 kPa, x2 = 0.1981 | – | – | – | – | – | – | – | 4.25
101 kPa, x2 = 0.3596 | – | – | – | 5.68 | – | – | 4.29 | –
101 kPa, x2 = 0.6028 | 4.42 | – | – | – | – | – | – | –
101 kPa, x2 = 0.7678 | 2.72 | – | – | – | – | – | – | –

O + CCCO + CCCCCCCCCCCCOS(=O)(=O)[O-].[Na+]
Settings | electrical conductivity [S/m]
298 K, 100 kPa, frequency 0.001 MHz, x2 = 0, x1 = 1 | 0.0005

CC(O)C(=O)[O-].CN(C)CCOCC[NH+](C)C + O
Settings | viscosity [mPa·s]
298.15 K, 100 kPa, x1 = 0.06665 | 2.86
